From ChEMBL document CHEMBL3991601, “The target landscape of clinical kinase drugs” (Science, 2017)
Calls of active or inactive are those of the source. Rule as the data show it, for most assays here: actives have a measured Kd and inactives only a lower limit.

What was measured:
[1] = biological target: T1, ATP-dependent RNA helicase DDX1 (Homo sapiens, UniProt Q92499)
T1 sequence (Q92499 whole entry): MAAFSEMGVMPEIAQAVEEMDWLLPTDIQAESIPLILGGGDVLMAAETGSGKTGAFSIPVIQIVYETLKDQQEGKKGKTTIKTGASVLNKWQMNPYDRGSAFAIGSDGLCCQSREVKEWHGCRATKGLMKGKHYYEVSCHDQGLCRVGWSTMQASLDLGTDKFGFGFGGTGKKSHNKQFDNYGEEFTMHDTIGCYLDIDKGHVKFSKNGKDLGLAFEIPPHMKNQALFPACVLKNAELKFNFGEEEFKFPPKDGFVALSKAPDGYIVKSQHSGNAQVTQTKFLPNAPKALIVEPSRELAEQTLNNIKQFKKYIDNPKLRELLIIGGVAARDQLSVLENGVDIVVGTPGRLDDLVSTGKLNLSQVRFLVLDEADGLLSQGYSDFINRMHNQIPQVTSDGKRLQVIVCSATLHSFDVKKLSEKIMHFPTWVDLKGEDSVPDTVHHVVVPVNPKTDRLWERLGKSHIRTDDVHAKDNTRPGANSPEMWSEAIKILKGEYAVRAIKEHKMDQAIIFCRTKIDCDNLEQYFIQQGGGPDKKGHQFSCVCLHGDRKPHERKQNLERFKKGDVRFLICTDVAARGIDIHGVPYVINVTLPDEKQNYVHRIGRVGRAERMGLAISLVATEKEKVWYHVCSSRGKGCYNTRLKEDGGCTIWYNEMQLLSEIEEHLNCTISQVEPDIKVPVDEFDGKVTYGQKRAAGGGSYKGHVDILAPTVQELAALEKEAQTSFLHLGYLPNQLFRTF

[2] = biological target: Tyrosine-protein kinase ABL1 (Homo sapiens, UniProt P00519)
Activin receptor type-1B = biological target: T2, Activin receptor type-1B (Homo sapiens, UniProt P36896)
T2 sequence (P36896 whole entry): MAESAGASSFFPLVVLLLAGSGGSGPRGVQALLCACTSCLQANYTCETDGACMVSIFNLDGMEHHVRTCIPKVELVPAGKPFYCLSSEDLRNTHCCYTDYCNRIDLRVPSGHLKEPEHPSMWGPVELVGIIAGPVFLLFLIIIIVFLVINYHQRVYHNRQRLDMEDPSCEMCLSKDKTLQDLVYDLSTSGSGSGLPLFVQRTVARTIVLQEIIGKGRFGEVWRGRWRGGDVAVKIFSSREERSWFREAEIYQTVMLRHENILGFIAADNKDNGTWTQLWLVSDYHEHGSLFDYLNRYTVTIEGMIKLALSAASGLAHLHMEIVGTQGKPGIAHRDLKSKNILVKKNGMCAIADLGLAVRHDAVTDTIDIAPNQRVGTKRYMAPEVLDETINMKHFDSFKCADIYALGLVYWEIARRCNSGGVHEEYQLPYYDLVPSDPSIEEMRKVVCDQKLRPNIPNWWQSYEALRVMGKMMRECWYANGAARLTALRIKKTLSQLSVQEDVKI

[3] = biological target: Adenylate kinase 2, mitochondrial (Homo sapiens, UniProt P54819)
[4] = biological target: Tyrosine-protein kinase HCK (Homo sapiens, UniProt P08631)
[5] = biological target: Tyrosine-protein kinase ABL2 (Homo sapiens, UniProt P42684)
[6] = biological target: Tyrosine-protein kinase CSK (Homo sapiens, UniProt P41240)
Wee1-like protein kinase = Wee1-like protein kinase (Homo sapiens, UniProt P30291)
[7] = biological target: Protein kinase C delta type (Homo sapiens, UniProt Q05655)
[8] = biological target: Casein kinase I isoform alpha (Homo sapiens, UniProt P48729)
[9] = biological target: T3, Dynamin-like GTPase OPA1, mitochondrial (Homo sapiens, UniProt O60313)
T3 sequence (O60313 whole entry): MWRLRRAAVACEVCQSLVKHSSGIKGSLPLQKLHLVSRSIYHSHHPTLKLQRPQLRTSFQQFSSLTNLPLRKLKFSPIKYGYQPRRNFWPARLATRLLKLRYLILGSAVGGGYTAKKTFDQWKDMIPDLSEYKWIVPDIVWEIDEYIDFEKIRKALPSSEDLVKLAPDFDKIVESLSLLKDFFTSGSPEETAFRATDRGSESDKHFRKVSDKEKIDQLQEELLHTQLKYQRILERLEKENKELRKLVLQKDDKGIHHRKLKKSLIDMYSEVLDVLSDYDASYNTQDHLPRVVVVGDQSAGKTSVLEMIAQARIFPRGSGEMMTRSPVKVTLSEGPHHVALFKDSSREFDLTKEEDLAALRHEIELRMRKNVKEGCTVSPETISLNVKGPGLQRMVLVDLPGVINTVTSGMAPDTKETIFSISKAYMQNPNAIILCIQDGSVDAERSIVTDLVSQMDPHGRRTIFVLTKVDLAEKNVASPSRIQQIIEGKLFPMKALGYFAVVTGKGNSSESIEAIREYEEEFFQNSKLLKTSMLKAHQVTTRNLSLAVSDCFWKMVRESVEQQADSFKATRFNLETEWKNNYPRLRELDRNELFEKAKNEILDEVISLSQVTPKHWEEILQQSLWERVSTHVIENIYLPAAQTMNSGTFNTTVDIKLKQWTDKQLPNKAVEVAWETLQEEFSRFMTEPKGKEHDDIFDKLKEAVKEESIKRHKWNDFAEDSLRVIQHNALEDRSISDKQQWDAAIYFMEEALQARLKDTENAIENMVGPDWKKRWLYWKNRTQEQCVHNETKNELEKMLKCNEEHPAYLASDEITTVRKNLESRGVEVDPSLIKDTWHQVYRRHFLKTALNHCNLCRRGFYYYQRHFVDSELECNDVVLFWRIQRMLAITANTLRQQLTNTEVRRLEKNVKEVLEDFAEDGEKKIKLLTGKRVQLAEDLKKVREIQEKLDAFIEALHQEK

[10] = biological target: Mitogen-activated protein kinase 9 (Homo sapiens, UniProt P45984)
Also: in the data inactive means no Kd found up to 30 µM.

Tyrosine-protein kinase ABL2, sequence (P42684 whole entry): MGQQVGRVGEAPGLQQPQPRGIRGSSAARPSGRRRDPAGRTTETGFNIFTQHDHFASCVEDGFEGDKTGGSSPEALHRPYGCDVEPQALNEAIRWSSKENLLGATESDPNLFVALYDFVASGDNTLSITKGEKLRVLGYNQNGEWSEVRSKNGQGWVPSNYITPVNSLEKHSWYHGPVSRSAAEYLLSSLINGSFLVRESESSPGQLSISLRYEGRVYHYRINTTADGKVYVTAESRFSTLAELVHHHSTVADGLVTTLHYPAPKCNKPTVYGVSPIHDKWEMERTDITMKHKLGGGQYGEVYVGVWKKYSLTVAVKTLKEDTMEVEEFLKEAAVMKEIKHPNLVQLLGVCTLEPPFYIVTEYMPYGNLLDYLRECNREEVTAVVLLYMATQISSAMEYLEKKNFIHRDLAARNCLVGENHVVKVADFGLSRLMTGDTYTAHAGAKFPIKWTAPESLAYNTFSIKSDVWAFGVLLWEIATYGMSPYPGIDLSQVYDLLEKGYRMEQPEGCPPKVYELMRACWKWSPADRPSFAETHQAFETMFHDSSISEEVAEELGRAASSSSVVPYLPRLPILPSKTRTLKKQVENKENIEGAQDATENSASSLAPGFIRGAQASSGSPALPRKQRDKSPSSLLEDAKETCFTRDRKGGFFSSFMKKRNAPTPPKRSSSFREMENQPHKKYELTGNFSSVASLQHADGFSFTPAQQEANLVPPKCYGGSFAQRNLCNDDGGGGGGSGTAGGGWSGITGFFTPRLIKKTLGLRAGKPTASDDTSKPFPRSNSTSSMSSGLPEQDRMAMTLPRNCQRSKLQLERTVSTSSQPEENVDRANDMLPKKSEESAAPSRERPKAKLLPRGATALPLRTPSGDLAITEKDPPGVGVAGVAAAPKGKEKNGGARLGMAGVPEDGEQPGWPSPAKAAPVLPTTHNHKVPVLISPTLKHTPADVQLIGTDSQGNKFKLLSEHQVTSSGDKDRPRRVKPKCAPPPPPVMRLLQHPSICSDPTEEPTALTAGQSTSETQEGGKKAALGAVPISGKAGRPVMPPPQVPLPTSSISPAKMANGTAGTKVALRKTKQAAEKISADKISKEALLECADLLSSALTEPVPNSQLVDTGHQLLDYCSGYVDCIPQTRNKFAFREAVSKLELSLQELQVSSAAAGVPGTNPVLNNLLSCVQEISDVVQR
Protein kinase C delta type, sequence (Q05655 whole entry, canonical isoform): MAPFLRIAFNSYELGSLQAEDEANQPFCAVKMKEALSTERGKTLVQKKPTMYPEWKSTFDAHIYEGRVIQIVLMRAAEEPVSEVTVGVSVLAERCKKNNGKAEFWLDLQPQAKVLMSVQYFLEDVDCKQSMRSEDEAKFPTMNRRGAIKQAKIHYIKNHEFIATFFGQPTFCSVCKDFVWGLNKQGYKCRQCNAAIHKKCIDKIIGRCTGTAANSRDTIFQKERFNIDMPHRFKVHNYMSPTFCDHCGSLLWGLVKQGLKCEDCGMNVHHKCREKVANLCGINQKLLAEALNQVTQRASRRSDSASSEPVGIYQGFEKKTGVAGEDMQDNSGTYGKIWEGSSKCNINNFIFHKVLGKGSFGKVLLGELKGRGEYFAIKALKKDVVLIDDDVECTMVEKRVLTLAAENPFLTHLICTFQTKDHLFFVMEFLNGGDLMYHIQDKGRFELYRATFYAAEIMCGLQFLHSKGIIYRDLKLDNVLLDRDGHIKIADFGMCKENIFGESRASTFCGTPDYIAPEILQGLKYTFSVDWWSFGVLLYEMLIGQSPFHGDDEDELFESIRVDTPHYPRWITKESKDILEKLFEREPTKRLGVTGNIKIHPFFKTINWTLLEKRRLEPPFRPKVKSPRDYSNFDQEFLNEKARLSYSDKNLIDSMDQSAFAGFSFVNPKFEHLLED
Tyrosine-protein kinase ABL1, sequence (P00519 whole entry): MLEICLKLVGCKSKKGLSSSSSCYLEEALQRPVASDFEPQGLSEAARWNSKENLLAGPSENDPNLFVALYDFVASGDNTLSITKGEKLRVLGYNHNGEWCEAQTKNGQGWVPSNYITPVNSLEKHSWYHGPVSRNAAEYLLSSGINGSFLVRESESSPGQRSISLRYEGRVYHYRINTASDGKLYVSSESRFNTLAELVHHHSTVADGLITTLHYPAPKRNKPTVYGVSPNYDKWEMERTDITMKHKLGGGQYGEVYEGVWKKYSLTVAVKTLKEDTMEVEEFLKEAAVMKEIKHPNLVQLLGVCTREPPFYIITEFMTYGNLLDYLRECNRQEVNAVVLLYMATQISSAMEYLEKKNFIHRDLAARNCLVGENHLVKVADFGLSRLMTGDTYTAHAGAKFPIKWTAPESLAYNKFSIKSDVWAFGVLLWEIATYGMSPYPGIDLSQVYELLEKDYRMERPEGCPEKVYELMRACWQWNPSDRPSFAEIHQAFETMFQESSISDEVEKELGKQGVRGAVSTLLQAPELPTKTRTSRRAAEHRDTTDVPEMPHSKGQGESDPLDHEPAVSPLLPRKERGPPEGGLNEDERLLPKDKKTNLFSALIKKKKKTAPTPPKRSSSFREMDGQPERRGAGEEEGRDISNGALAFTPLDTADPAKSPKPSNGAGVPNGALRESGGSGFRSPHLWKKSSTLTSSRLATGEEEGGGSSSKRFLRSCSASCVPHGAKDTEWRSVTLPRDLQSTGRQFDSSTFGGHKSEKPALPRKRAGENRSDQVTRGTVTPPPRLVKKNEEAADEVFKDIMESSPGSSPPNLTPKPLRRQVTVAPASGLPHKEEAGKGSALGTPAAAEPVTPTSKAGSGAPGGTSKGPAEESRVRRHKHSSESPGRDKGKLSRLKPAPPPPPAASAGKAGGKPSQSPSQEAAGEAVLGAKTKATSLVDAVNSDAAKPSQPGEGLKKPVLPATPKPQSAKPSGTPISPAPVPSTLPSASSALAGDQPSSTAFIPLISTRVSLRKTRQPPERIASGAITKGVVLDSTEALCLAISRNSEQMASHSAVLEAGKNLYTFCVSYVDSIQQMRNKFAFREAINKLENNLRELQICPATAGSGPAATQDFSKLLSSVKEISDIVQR
Tyrosine-protein kinase HCK, sequence (P08631 whole entry): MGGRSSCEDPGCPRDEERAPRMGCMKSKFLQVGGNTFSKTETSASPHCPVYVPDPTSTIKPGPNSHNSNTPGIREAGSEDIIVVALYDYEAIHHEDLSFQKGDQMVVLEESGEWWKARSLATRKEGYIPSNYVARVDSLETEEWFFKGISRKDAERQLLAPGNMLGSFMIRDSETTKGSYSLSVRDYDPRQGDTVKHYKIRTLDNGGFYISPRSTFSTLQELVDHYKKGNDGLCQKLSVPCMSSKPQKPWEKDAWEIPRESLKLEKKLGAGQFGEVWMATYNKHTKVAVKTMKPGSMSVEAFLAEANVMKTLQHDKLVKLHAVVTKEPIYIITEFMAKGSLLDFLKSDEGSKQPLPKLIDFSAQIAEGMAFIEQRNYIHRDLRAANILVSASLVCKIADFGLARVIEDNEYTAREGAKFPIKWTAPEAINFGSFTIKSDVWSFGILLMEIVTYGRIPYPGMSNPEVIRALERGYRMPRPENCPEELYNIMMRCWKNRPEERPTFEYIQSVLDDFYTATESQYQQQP
Casein kinase I isoform alpha, sequence (P48729 whole entry, canonical isoform): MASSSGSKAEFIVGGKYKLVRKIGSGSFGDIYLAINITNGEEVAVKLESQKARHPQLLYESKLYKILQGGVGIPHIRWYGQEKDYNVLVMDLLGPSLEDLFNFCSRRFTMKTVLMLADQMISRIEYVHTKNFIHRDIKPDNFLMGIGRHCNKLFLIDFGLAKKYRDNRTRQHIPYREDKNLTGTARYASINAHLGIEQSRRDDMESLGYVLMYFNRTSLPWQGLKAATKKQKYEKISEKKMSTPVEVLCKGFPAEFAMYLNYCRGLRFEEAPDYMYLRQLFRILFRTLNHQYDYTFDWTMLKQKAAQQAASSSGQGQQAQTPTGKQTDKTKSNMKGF
Wee1-like protein kinase, sequence (P30291 whole entry): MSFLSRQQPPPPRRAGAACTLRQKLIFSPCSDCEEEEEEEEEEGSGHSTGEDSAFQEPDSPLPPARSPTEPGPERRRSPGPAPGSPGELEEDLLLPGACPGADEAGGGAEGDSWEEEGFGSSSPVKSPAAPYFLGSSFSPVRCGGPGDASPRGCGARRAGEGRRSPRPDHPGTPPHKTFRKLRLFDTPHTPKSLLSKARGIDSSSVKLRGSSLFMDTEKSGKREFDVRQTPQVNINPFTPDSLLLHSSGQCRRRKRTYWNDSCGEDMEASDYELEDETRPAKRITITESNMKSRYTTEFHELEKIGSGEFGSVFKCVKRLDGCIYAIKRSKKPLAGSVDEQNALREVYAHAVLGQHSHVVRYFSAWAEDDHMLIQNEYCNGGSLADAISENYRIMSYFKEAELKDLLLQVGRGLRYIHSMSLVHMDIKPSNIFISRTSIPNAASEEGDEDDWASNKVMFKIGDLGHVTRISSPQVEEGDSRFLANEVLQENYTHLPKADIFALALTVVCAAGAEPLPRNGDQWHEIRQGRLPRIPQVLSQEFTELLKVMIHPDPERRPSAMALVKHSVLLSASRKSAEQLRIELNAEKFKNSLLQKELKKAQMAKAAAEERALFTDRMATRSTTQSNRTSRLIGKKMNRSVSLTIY
Mitogen-activated protein kinase 9, sequence (P45984 whole entry): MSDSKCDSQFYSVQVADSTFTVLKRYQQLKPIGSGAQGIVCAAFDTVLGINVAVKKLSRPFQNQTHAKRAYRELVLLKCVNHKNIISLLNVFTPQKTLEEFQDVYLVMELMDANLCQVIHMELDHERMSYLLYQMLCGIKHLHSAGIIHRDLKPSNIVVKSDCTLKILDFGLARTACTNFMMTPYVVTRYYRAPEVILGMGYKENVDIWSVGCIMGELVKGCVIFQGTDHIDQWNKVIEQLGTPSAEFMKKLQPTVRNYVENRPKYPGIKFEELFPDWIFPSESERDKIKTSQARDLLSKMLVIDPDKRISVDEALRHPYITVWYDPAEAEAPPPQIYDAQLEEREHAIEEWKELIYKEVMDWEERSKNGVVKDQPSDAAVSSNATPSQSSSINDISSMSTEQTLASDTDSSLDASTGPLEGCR

Kd [1]	Kd [2]	Kd [3]	Kd [7]	Kd [9]	Compound	Kd (Activin receptor type-1B)	Kd [4]	Kd [5]	Kd [6]	Kd (Wee1-like protein kinase)	Kd [8]	Kd [10]
> 30 µM (inactive)		> 30 µM (inactive)	> 30 µM (inactive)	> 30 µM (inactive)	Cn1c(=O)n(-c2ccc(C(C)(C)C#N)cc2)c2c3cc(-c4cnc5ccccc5c4)ccc3ncc21 [DACTOLISIB]	> 30 µM (inactive)	> 30 µM (inactive)	> 30 µM (inactive)	> 30 µM (inactive)	> 30 µM (inactive)		
> 30 µM (inactive)		> 30 µM (inactive)		> 30 µM (inactive)	COc1cc2c(Oc3ccc4[nH]c(C)cc4c3F)ncnc2cc1OCCCN1CCCC1 [CEDIRANIB]							
> 30 µM (inactive)		> 30 µM (inactive)		> 30 µM (inactive)	COc1cc2c(N3CCN(C(=O)Nc4ccc(OC(C)C)cc4)CC3)ncnc2cc1OCCCN1CCCCC1 [TANDUTINIB]							
> 30 µM (inactive)		> 30 µM (inactive)		> 30 µM (inactive)	CN(C)C/C=C/C(=O)Nc1cc2c(Nc3ccc(F)c(Cl)c3)ncnc2cc1O[C@H]1CCOC1 [AFATINIB]							
> 30 µM (inactive)		> 30 µM (inactive)	> 30 µM (inactive)	> 30 µM (inactive)	O=S(=O)(c1cccc2c(O)nccc12)N1CCCNCC1 [HYDROXYFASUDIL]	> 30 µM (inactive)	> 30 µM (inactive)	> 30 µM (inactive)	> 30 µM (inactive)		> 30 µM (inactive)	> 30 µM (inactive)
> 30 µM (inactive)		> 30 µM (inactive)		> 30 µM (inactive)	Cn1cnc2c(F)c(Nc3ccc(Br)cc3Cl)c(C(=O)NOCCO)cc21 [SELUMETINIB]							
> 30 µM (inactive)		> 30 µM (inactive)		> 30 µM (inactive)	C[C@@]1(C(=O)Nc2ccc(F)nc2)CCCN1c1nc(Nc2cc(C3CC3)n[nH]2)c2cccn2n1 [BMS-754807]							
> 30 µM (inactive)		> 30 µM (inactive)	> 30 µM (inactive)	> 30 µM (inactive)	CCN(CCCOc1ccc2c(Nc3cc(CC(=O)Nc4cccc(F)c4)n[nH]3)ncnc2c1)CCOP(=O)(O)O [BARASERTIB]	> 30 µM (inactive)		> 30 µM (inactive)	> 30 µM (inactive)	> 30 µM (inactive)		

The remaining lines, values behind:

Compound	Kd [1]	Kd [2]	Kd [3]	Kd [7]	Kd [9]	Kd (Activin receptor type-1B)	Kd [4]	Kd [5]	Kd [6]	Kd (Wee1-like protein kinase)	Kd [8]	Kd [10]
NC(=O)c1ccc(N(C(N)=O)c2c(F)cccc2F)nc1-c1ccc(F)cc1F [VX-702]	> 30 µM (inactive)	> 30 µM (inactive)	> 30 µM (inactive)	> 30 µM (inactive)	> 30 µM (inactive)	> 30 µM (inactive)	> 30 µM (inactive)	> 30 µM (inactive)	> 30 µM (inactive)	> 30 µM (inactive)	> 30 µM (inactive)	
Cn1cc(-c2[nH]c3cc(NC(=O)[C@H](N)C4CCCCC4)cc4c3c2C=NNC4=O)cn1	> 30 µM (inactive)		> 30 µM (inactive)	> 30 µM (inactive)	> 30 µM (inactive)	> 30 µM (inactive)	0.436 µM (active)	1.37 µM (active)	> 30 µM (inactive)	4.86 µM (active)	> 30 µM (inactive)	> 30 µM (inactive)
CN(c1ncccc1CNc1nc(Nc2ccc3c(c2)CC(=O)N3)ncc1C(F)(F)F)S(C)(=O)=O [PF-00562271]	> 30 µM (inactive)		> 30 µM (inactive)		> 30 µM (inactive)	> 30 µM (inactive)		> 30 µM (inactive)	> 30 µM (inactive)	> 30 µM (inactive)		
C[C@]1(O)C[C@@H](c2nc(-c3ccc4ccc(-c5ccccc5)nc4c3)c3c(N)nccn32)C1 [LINSITINIB]	> 30 µM (inactive)		> 30 µM (inactive)		> 30 µM (inactive)	> 30 µM (inactive)	> 30 µM (inactive)	> 30 µM (inactive)	> 30 µM (inactive)	> 30 µM (inactive)		
CC(C)CC(=O)Nc1[nH]nc2c1CN(C(=O)C1CCN(C)CC1)C2(C)C [PHA-793887]	> 30 µM (inactive)		> 30 µM (inactive)	> 30 µM (inactive)	> 30 µM (inactive)	> 30 µM (inactive)	> 30 µM (inactive)	> 30 µM (inactive)	> 30 µM (inactive)	> 30 µM (inactive)	> 30 µM (inactive)	> 30 µM (inactive)
O[C@H]1CC[C@H](Nc2ncc3nc(Nc4c(F)cc(F)cc4F)n([C@H]4CCOC4)c3n2)CC1 [TANZISERTIB]	> 30 µM (inactive)	> 30 µM (inactive)	> 30 µM (inactive)	> 30 µM (inactive)	> 30 µM (inactive)	> 30 µM (inactive)	> 30 µM (inactive)	> 30 µM (inactive)	> 30 µM (inactive)	> 30 µM (inactive)	> 30 µM (inactive)	
C=CCn1c(=O)c2cnc(Nc3ccc(N4CCN(C)CC4)cc3)nc2n1-c1cccc(C(C)(C)O)n1 [ADAVOSERTIB]	> 30 µM (inactive)		> 30 µM (inactive)	> 30 µM (inactive)	> 30 µM (inactive)	> 30 µM (inactive)	> 30 µM (inactive)	> 30 µM (inactive)	> 30 µM (inactive)			
N#CCNC(=O)c1ccc(-c2ccnc(Nc3ccc(N4CCOCC4)cc3)n2)cc1 [MOMELOTINIB]	> 30 µM (inactive)		> 30 µM (inactive)	> 30 µM (inactive)		> 30 µM (inactive)		> 30 µM (inactive)	> 30 µM (inactive)		> 30 µM (inactive)	
CC1(C)CNc2cc(NC(=O)c3cccnc3NCc3ccncc3)ccc21 [MOTESANIB]	> 30 µM (inactive)		> 30 µM (inactive)		> 30 µM (inactive)							
O=S(=O)(c1cccc2cnccc12)N1CCCNCC1 [FASUDIL]	> 30 µM (inactive)	> 30 µM (inactive)	> 30 µM (inactive)		> 30 µM (inactive)	> 30 µM (inactive)	> 30 µM (inactive)	> 30 µM (inactive)	> 30 µM (inactive)	> 30 µM (inactive)		
